“And” between values parts separate entries of the source, which are not always exact repeats. Equal entries are not always repeated.
Columns and labels:
Format in all cases: cell-based
[1] = molecular target: T1, MRGPRX4 WT (S83) (Homo sapiens, UniProt Q96LA9, L83S); assay: Calcium mobilization assay (FLIPR), WT (S83) MRGPRX4 transiently expressed in HEK293T cells; parameters: expressed in transfected cells; host or cells: HEK293T, transient; settings: for fig. S8 response (normalized), concentration-response: WT, single replicate
T1 sequence (Q96LA9 whole entry L83S): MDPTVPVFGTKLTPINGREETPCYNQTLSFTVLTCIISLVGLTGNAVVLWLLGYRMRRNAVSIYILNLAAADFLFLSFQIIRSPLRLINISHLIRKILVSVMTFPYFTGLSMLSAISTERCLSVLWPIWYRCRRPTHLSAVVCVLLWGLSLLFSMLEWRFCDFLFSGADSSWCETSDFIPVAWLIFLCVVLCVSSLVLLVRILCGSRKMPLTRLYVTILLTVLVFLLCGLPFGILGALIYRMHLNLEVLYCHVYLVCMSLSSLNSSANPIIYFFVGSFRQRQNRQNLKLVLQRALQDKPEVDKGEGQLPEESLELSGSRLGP
Text: (§1) Fig. 4. […] Hydrogen bond is shown as cyan dashed lines. […] Data are from three independent experiments, performed in triplicate. (E) pEC50 plots of various agonists toward S83- and L83-MRGPRX4 through calcium mobilization assay. […] Each data point represents an independent experiment, performed in triplicate. The extra sum-of-square F test was used to examine the difference in EC50 values. One-sided t-test was used for nateglinide. *p< 0.05, **p< 0.01 and ***p< 0.001. ns = no statistical significance. Both (D) and (E) are reported as the mean ± SEM. N.D.= no detectable response ≤ 100 μM.
(§2) HEK293 cells and MRGPRX4 stably expressed HEK293 cells were seeded in 100 μl culture media on 96-well plates at a density of 40,000 cells per well and incubated overnight. The next day, the media were replaced with a dye-loading solution from the FLIPR Calcium 5 assay kit (Molecular Devices), diluted in Hank's Balanced Salt Solution (HBSS) with 20 mM HEPES, pH 7.4. After 1 h of incubation at 37°C, cells were allowed to recover for 10 min in the dark at room temperature prior to performing intracellular calcium mobilization assay in a Flexstation-3 instrument with SoftMax®Pro 7.1 software (Molecular Devices). Serial concentrations of tested drugs were prepared in HBSS/HEPES solution at 3X concentration. […] Compounds were tested in triplicates and the signals were averaged. Responses were determined by subtracting the minimum signal (at the baseline before adding the drug) from the maximum signal (obtained after drug stimulation). Four-parameter logistic (4PL) curve fit was used to plot the dose-response curves. […] Both dose-response curve fitting and EC50s calculation are computed with GraphPad Prism software (version: 6.o or above).
(§3) To generate murine Mrgprs expressing cells, HEK293T cells (ATCC) were seeded on poly-D-lysine coated 96 well plate at 25,000 cells per well one day prior to transfection. HEK293T cells were transiently co-transfected with the mammalian expression plasmids carrying cDNA encoding the murine Mrgpr genes and plasmid inserted with cDNA encoding murine α-subunit of the heterotrimeric G15 protein (Gα15) in triplicates using Lipofectamine LTX reagents (Thermo Scientific). To generate WT, S83L, and alanine mutant MRGPRX4-expressing cells, HEK293T cells were seeded on poly-D-lysine coated 384 well plate at 12,000 cells per well one day prior to transfection. Mammalian expression plasmids pLX304 (vector from Addgene) carrying different MRGPRX4 coding sequences were transiently transfected into HEK293T cells in triplicates with Lipofectamine LTX reagents (Thermo Scientific). Intracellular calcium mobilization assays were performed after one day of transfection. Murine Mrgprs tested include Mrgpra1, Mrgpra2a, Mrgpra2b, Mrgpra3, Mrgpra4, Mrgpra6, Mrgpra9, Mrgpra10, Mrgpra11, Mrgpra12, Mrgpra14, Mrgprb5, Mrgprb6, Mrgprb10, Mrgprb11, and Mrgprc11. WT and mutant MRGPRX4 constructs tested include WT, S83L, R82A, R86A, R95A, W158A, Y250A, and Y254A.

[2] = molecular target: MRGPRX4 S83L (L83) (Homo sapiens, UniProt Q96LA9); assay: Calcium mobilization assay (FLIPR), S83L MRGPRX4 transiently expressed in HEK293T cells; parameters: expressed in transfected cells; host or cells: HEK293T, transient; settings: 2e-5 M, single replicate
Chain of MRGPRX4 S83L (L83) (Q96LA9 whole entry, stated change not applied): as the sequence (Q96LA9 whole entry L83S) above, with S83L counted along it
Text: as §1, §2, §3

[3] = molecular target: T1, MRGPRX4 WT (S83); assay: PRESTO-Tango β-arrestin recruitment assay, HTLA cells stably expressing WT (S83) MRGPRX4; parameters: expressed in transfected cells; settings: HTLA::MRGPRX4
Procedure: HTLA cells, a cell line derived from HEK293 and engineered to stably express a tTA-dependent luciferase reporter and a β-arrestin2-TEV fusion gene, were generously provided by Richard Axel's laboratory. HTLA cells were cultured in growth medium containing 2 μg/ml puromycin and 100 μg/ml hygromycin B in 5% CO2 at 37 °C. Stably MRGPRX4-expressing HTLA cells were generated by transfecting pcDNA3.1(+)-Zeo containing MRGPRX4-Tango construct (either with WT or S83L mutant sequence) into HTLA cells with Lipofectamine 3000 and selecting the successful transfected clones with Zeocin.
HTLA cells stably expressing either WT or S83L MRGPRX4 were seeded in PDL-coated 96-well white clear bottom cell culture plates with DMEM containing 10% FBS, at a density of 35,000 cells per well and were allowed to attach to the bottom of the wells overnight. The next day, growth medium was replaced with 100 μl of serum-free medium containing the tested drugs at various concentrations, and the cells were then incubated at 37°C for 24 h. On the following day, media with drug solutions was removed and 50 μl per well of Bright-Glo™ Reagent from Bright-Glo™ Luciferase Assay System (Promega) was loaded. The plate was incubated at room temperature in the dark for 5 min, and the relative luminescence units were measured using the Flexstation-3 instrument with SoftMax®Pro 7.1 software (Molecular Devices). Dose response curves and EC50s were analyzed as described above.
Data are from at least two independent experiments, each performed in
triplicate, and are depicted as mean ± SEM.
arrestin2-TEV fusion gene and a tTA -dependent luciferase reporter.

[4] = molecular target: T2, MRGPRX4 (S83) (Homo sapiens, UniProt Q96LA9, L83S); assay: EC50 determination, intracellular calcium mobilization in MRGPRX4 stably expressed HEK293 cells (FLIPR Calcium 5, Flexstation-3); settings: propofol series, individual replicate values
T2 construct: expressed in transfected cells
T2 sequence (Q96LA9 whole entry L83S): as the sequence (Q96LA9 whole entry L83S) above
Method in brief: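 HEK293 cells stably expressing receptor (parental HEK293 alongside) loaded with Calcium 5 dye in HBSS/20 mM HEPES, pH 7.4, 1 h at 37 °C, then compounds added. Response = peak minus pre-drug baseline, triplicates averaged; EC50 from 4PL fit.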

[5] = tested on: HTLA cells; assay: PRESTO-Tango β-arrestin recruitment assay, parental HTLA cells without MRGPRX4 (control, fig. S1)
Text: Supplement NIHMS2038790-supplement-table.xlsx, sheet "fig. S1" | column: Concentration (M)

## C[C@H](CCC(=O)O)[C@H]1CC[C@H]2[C@@H]3CC[C@@H]4C[C@H](O)CC[C@]4(C)[C@H]3C[C@H](O)[C@]12C [Deoxycholic Acid]
[1]; 1.95e-8 M
  fig. S8 response (normalized), concentration-response: 6.035
[1]; 3.91e-8 M
  fig. S8 response (normalized), concentration-response: 8.843
[1]; calcium mobilization, compared with S83L (A17)
  Potency at S83- vs L83-MRGPRX4: equal potency
[2]
  fig. S8 response (normalized), concentration-response: 87.5629

## CC(C)c1cccc(C(C)C)c1O [Propofol]
[3]; concentration 9.77e-7 M
  PRESTO-Tango response (fig. S1), single replicate: 0.1179 and 0.1434 and 0.1128 and 0.0576 and 0.1584 and 0.1581 and 0.09558 and 0.2113 and 0.06727
[3]; concentration 1.95e-6 M
  PRESTO-Tango response (fig. S1), single replicate: 0.1108 and 0.0929 and 0.1168 and 0.004899 and 0.1204 and 0.1953 and 0.1172 and 0.1059 and 0.09744
[3]; concentration 3.91e-6 M
  PRESTO-Tango response (fig. S1), single replicate: 0.09107 and 0.1491 and 0.1505 and 0.154 and 0.1534 and 0.08321 and 0.05164 and 0.03127 and 0.3077
[3]; concentration 7.81e-6 M
  PRESTO-Tango response (fig. S1), single replicate: 0.1035 and 0.1156 and 0.1105 and 0.05878 and 0.1844 and 0.08643 and 0.09982 and 0.0447 and 0.1851
[3]; concentration 1.56e-5 M
  PRESTO-Tango response (fig. S1), single replicate: 0.1135 and 0.116 and 0.1027 and 0.1824 and 0.02561 and 0.1241 and 0.06605 and 0.09721 and 0.1689
[3]; concentration 3.13e-5 M
  PRESTO-Tango response (fig. S1), single replicate: 0.1268 and 0.1068 and 0.1143 and 0.2727 and 0.04775 and 0.02749 and 0.1181 and 0.1469 and 0.08291
[3]; concentration 6.25e-5 M
  PRESTO-Tango response (fig. S1), single replicate: 0.1552 and 0.07997 and 0.0929 and 0.03397 and 0.1353 and 0.1588 and 0.2302 and 0.01074 and 0.08707
[3]; concentration 0.00025 M
  PRESTO-Tango response (fig. S1), single replicate: 0.109 and 0.07615 and 0.1012 and 0.1462 and 0.1013 and 0.03885 and 0.188 and 0.002674 and 0.09569
[3]; concentration 0.0005 M
  PRESTO-Tango response (fig. S1), single replicate: 0.06978 and 0.08316 and 0.1048 and 0.1033 and 0.11 and 0.04438 and 0.05461 and 0.1469 and 0.05616
[3]; concentration 0.001 M
  PRESTO-Tango response (fig. S1), single replicate: 0.07852 and 0.088 and 0.0856 and 0.07264 and 0.06166 and 0.1178 and 0.08358 and 0.132 and 0.03659
[4]; 9.76563e-7 M
  Fig. 1D dose-response, calcium response at Concentration (M): 0.414 and 3.255 and 2.599 and 1.616 and 1.795 and 1.237 and 1.276 and 3.496 and 2.341
[4]; 1.95313e-6 M
  Fig. 1D dose-response, calcium response at Concentration (M): 1.458 and 0.513 and 0.300 and 1.914 and 1.276 and 2.203 and 3.251 and -1.964 and 1.519
[4]; 3.90625e-6 M
  Fig. 1D dose-response, calcium response at Concentration (M): 5.819 and 7.751 and 4.466 and 7.090 and 4.830 and 4.639 and 13.006 and -1.259 and 2.816
[4]; 7.8125e-6 M
  Fig. 1D dose-response, calcium response at Concentration (M): 1.962 and 0.130 and 1.580 and 1.041 and 3.162 and 0.591 and -0.388 and 5.581 and 3.691
[4]; 1.5625e-5 M
  Fig. 1D dose-response, calcium response at Concentration (M): 1.132 and 9.188 and 9.688 and 3.963 and 8.123 and 8.863 and 0.133 and 12.778 and 11.454
[4]; 3.125e-5 M
  Fig. 1D dose-response, calcium response at Concentration (M): 25.991 and 46.958 and 31.996 and 27.619 and 18.338 and 28.954 and 31.875 and 17.124 and 5.004
[4]; 6.25e-5 M
  Fig. 1D dose-response, calcium response at Concentration (M): 7.246 and 18.605 and 32.559 and 31.367 and 1.645 and 36.351 and 11.712 and 17.508 and 39.720
[4]; 0.00025 M
  Fig. 1D dose-response, calcium response at Concentration (M): 30.626 and 14.912 and 5.366 and 49.034 and 15.438 and 25.512 and 22.768 and 21.559 and 24.302
[4]; 0.0005 M
  Fig. 1D dose-response, calcium response at Concentration (M): 10.617 and 40.711 and 21.943 and 10.261 and 44.385 and 12.114 and 18.721 and 45.754 and 25.261
[4]; 0.001 M
  Fig. 1D dose-response, calcium response at Concentration (M): 34.500 and 40.615 and 40.058 and 10.462 and 33.199 and 24.127 and 20.241 and 39.351 and 8.604
[5]; concentration 9.77e-7 M
  PRESTO-Tango response (fig. S1), single replicate: 0.002641 and 0.003228 and 0.001921 and 0.003818 and 0.005628 and 0.002399 and 0.002922 and 0.00482 and 0.001506
[5]; concentration 1.95e-6 M
  PRESTO-Tango response (fig. S1), single replicate: 0.01304 and 0.00742 and 0.001861 and 0.009318 and 0.007315 and 0.005392 and 0.006104 and 0.000476 and 0.005086
[5]; concentration 3.91e-6 M
  PRESTO-Tango response (fig. S1), single replicate: 0.0059 and 0.008908 and 0.007295 and 0.003528 and 0.003903 and 0.003563 and 0.006271 and 0.01085 and 0.002976
[5]; concentration 7.81e-6 M
  PRESTO-Tango response (fig. S1), single replicate: 0.01035 and 0.005294 and 0.00767 and 0.001374 and 0.003682 and 0.00304 and 0.005677 and 0.00324 and 0.000748
[5]; concentration 1.56e-5 M
  PRESTO-Tango response (fig. S1), single replicate: 0.005663 and 0.003492 and 0.001779 and 0.006047 and 0.000809 and 0.001829 and 0.006081 and 0.002266 and 0.003388
[5]; concentration 3.13e-5 M
  PRESTO-Tango response (fig. S1), single replicate: 0.005015 and 0.001994 and 0.006447 and 0.00774 and 0.01014 and 0.004442 and 0.006627 and 0.005281 and 0.005885
[5]; concentration 6.25e-5 M
  PRESTO-Tango response (fig. S1), single replicate: 0.00323 and 0.00222 and 0.005079 and 0.001882 and 0.000357 and 0.003112 and 0.002446 and 0.001662 and 0.004291
[5]; concentration 0.00025 M
  PRESTO-Tango response (fig. S1), single replicate: 0.00362 and 0.004413 and 0.002642 and 0.006045 and 0.000923 and 0.008313 and 0.004252 and 0.005811 and 0.003669
[5]; concentration 0.0005 M
  PRESTO-Tango response (fig. S1), single replicate: 0.004877 and 0.00565 and 0.005098 and 0.004157 and 0.003595 and 0.001306 and 0.008836 and 0.005548 and 0.00448
[5]; concentration 0.001 M
  PRESTO-Tango response (fig. S1), single replicate: 0.000524 and 0.002159 and 0.001733 and 0.007522 and 0.000243 and 0.003444 and 0.004679 and 0.004321 and 0.006568

From publication PMC11645656, “MRGPRX4 mediates phospho-drug associated pruritus in a humanized mouse model” (Science translational medicine, 2024)
